From patent US20060020042A1, “Memantine for the treatment of mild and mild to moderate Alzheimer's disease” (Forest Laboratories, Inc., priority 2004, published 2006) come the findings set out here.

In experiment [1] the test system is outpatients with mild-to-moderate Alzheimer's disease. In words: CIBIC-plus in randomized, double-blind, placebo-controlled study. The class given is in vivo, human. Particulars: for CIBIC+ Non-Responder, number of patients / CIBIC+ Responder (ratings 1-4), number of patients / CIBIC+ Difference (memantine minus placebo, mean): Week 24, ITT; for CIBIC+ Difference (memantine minus placebo, mean): 20 mg/day. The text has this:
The present invention is based on results from a randomized, double-blind, placebo-controlled, multi-center, parallel-group study comparing memantine to placebo in outpatients diagnosed with probable AD according to […] criteria. Severity of mild to moderate was established using the Mini-Mental State Examination (MMSE) score (≧10 and ≦22; 0 is the lowest score and 30 is the highest score). In the study of the present invention, there were approximately 400 patients enrolled across 42 centers. Evaluation of primary efficacy was achieved by Alzheimer's Disease Assessment Scale-cognitive subscale (ADAS-cog) and the Clinician's Interview-Based Impression of Change including caregiver information (CIBIC-plus). Secondary efficacy was determined using Alzheimer's disease Cooperative Study-Activities of Daily Living (ADCS-ADL) and Neuropsychiatric Inventory (NPI) criteria. The CIBIC-Plus is a global rating that was derived through an independent, comprehensive interview with the patient and caregiver by an experienced rater/clinician who was barred from knowledge of all other psychometric test scores (after Baseline visit) conducted as part of this protocol and who is not otherwise familiar with the patient. Scores 1-3 indicate improvement; Score 4 indicates no change (as compared to baseline); Scores 5-7 indicate worsening. The CIBIC rater assessed disease severity at Baseline. Using the results from Baseline for reference, the rater then interviewed the patient and caregiver at the end of Weeks 4, 8, 12, 18 and 24 (or upon early termination), to obtain an “Impression of Change” rating. The format for this scale was derived from the Alzheimer's Disease Cooperative Study-Clinician's Global Impression of Change scale (ADCS-CGIC) (Schneider, L. et al, Alzheimer Dis Assoc Disord. 1997; 11 Suppl 2:S22-32). The CIBIC-plus was administered at each clinic visit starting with the Baseline visit. A “responder” is defined as a patient for whom the change from baseline (Visit 2) to Week 24 in ADAS-cog is less than or equal to -4. […] Results were evaluated over seven clinical visits; at initial screening, baseline, and the end of weeks 4, 8, 12, 18 and 24. The population of patients who received at least one dose of double-blind memantine, and completed at least one post-baseline efficacy evaluation of either the ADAS-cog or the CIBIC-plus is designated the “intent-to-treat” (ITT) population. The population of randomized patients who received at least one dose of double-blind study medication is designated the “safety population”. The randomized population designates all patients randomized into the study. This study was conducted as a fixed-dose study. All patients assigned to the memantine group received an initial dose of 5 mg per day; the dose was titrated in 5 mg weekly increments to a final dose of 20 mg/day (administered as two 5 mg tablets twice a day). Study drug was provided as blister packs containing masked study medication such that placebo and memantine tablets were visually identical, and all patients received four tablets of study medication daily (in combinations of memantine 5 mg tablets and matching placebo tablets). Transient dose adjustments were permitted between weeks 3 and 8 for patients experiencing dose-limiting adverse events. However, all patients were required to receive the target dose of 20 mg/day by the end of week 8. Patients not able to tolerate the target dose by week 8 were discontinued from the study. The CIBIC-plus rating was analyzed using the CMH test, controlling for study center ([…]). Descriptive statistics were calculated by visit.

Experiment [2] shares this test system. Kind of experiment: ADCS-ADL in randomized, double-blind, placebo-controlled study. The class given is in vivo, human. Conditions: Week 24, ITT, 20 mg/day. As to the method: In the study of the present invention, there were approximately 400 patients enrolled across 42 centers. Evaluation of primary efficacy was achieved by Alzheimer's Disease Assessment Scale-cognitive subscale (ADAS-cog) and the Clinician's Interview-Based Impression of Change including caregiver information (CIBIC-plus). Secondary efficacy was determined using Alzheimer's disease Cooperative Study-Activities of Daily Living (ADCS-ADL) and Neuropsychiatric Inventory (NPI) criteria. The ADCS-ADL inventory consists of 23 questions used to measure the functional capabilities of patients with dementia. These questions are selected from a larger set of 49 questions in the original ADL scale. A more common selection is of 19 questions from the same 49 question group. Each ADL item comprises a series of hierarchical sub-questions, ranging from the highest level of independent performance of each ADL to complete loss. The ADSC-ADL Inventory total score ranges from 0 (lower functioning status) to 78 (higher functioning status). A higher score indicates a better functioning status. […] Results were evaluated over seven clinical visits; at initial screening, baseline, and the end of weeks 4, 8, 12, 18 and 24. […] Descriptive statistics were calculated by visit. […]

The mark [3] stands for this setting: LOCF, ITT, of 196 patients randomized to memantine.

Molecules are shown by their SMILES.

As for `CC12CC3CC(C)(C1)CC(N)(C3)C2` [Memantine, 1-amino-3,5-dimethyladamantane], in experiment [1] (setting [3]), the “CIBIC-plus marked improvement, number of patients” value was 9 patients; the “CIBIC-plus marked worsening, number of patients” value was 1 patients; the “CIBIC-plus moderate improvement, number of patients” value is 27 patients; the “CIBIC-plus moderate worsening, number of patients” value was determined as 18 patients. In experiment [1] (OC analysis), the “CIBIC-plus marked worsening, number of patients” value was determined as 1 patients; the “CIBIC-plus minimal improvement, number of patients” value came to 24 patients; the “CIBIC-plus moderate improvement, number of patients” value amounted to 8 patients; the “CIBIC-plus moderate worsening, number of patients” value came to 17 patients. Moreover, in experiment [1] (OC analysis), the “CIBIC+ Non-Responder, number of patients” value is recorded as 56 patients and the “CIBIC+ Responder (ratings 1-4), number of patients” value (shortened to “CIBIC+ Responder”) is 108 patients. Besides, in experiment [1] (LOCF analysis), the “CIBIC+ Non-Responder, number of patients” value was 64 patients and the “CIBIC+ Responder” value worked out at 132 patients. Further, in experiment [1] (LOCF analysis, p=0.004), the “CIBIC+ Difference (memantine minus placebo, mean)” value is given as −0.32. For the same molecule, in experiment [1] (LOCF analysis, listed as Mem), the “CIBIC+ Non-Responder, number of patients” value was 97/64 patients and the “CIBIC+ Responder” value is given as 100/132 patients. Besides, in experiment [1] (OC analysis, p=0.030), the “CIBIC+ Difference (memantine minus placebo, mean)” value is −0.26. In experiment [1] (OC analysis, listed as Mem), the “CIBIC+ Non-Responder, number of patients” value was 81/56 patients and the “CIBIC+ Responder” value is 85/108 patients. Moreover, in experiment [1] (by week 12, LOCF and OC), the “CIBIC-plus, memantine-treated group compared with placebo” value was “statistically significant improvement”. In addition, the “ADCS-ADL Difference (memantine minus placebo, LS mean)” value in experiment [2] (LOCF analysis, p=0.890) worked out at 0.1. Also, in experiment [2] (OC analysis, p=0.975), the “ADCS-ADL Difference (memantine minus placebo, LS mean)” value was 0.0.
